# Data taken from patent US7547726B2, “AI-2 compounds and analogs based on Salmonella typhimurium LsrB structure” (The Trustees of Princeton University, priority 2004, dated 2009).
# Where two headings read alike, the source gives them in different places.
# Tests used:
# [1] = system: lsr operon in S. typhimurium strain MET844 (LuxS−); test: S. typhimurium AI-2 bioassay (lsr-lacZ, β-galactosidase activity, strain MET844); type: cell-based; settings: for lsr expression (β-galactosidase activity): borate-depleted LB medium, 4 hr, approximately 10 μM DPD and LsrB ligand, 4 μM LuxP ligand
# Description: (§1) V. harveyi strain MM32 (luxN::Cm, luxS::Tn5Kan) was used for bioluminescence assays. This strain was constructed by introducing luxS::Tn5Kan onto the chromosome of strain JAF305 (luxN::Cm) (Bassler et al., 1993; Freeman et al., 1999). S. typhimurium strain MET844 (rpsL, putRA::Kan-lsr-lacZYA, ΔlsrFGE::Cm, luxS::TPOP) was used for lsr-lacZ assays (Taga et al., 2003). V. harveyi was grown in borate-depleted autoinducer bioassay (AB) medium (Greenberg et al., 1979), and S. typhimurium was grown in borate-depleted Luria-Bertani (LB) medium. To remove borate, the media were filtered through a borate anion-specific resin, Amberlite IRA743 (Sigma-Aldrich). Specifically, 500 ml of medium was passed three times through 30 ml of resin and the column was regenerated between each passage according to a method described previously (Bennett et al., 1999). Following filtration, the pH of the medium was adjusted using KOH made with borate-depleted water. For all experiments involving borate-depleted reagents, only plastic supplies were used. To test the effect of boron on the bioluminescence and lsr-lacZ assays, boric acid was added to the borate-depleted media to a final concentration of 5 mM.
# AI-2-dependent induction of the lsr operon in S. typhimurium was measured by determining the β-galactosidase activity of the lsr-lacZ promoter fusion in S. typhimurium strain MET844. Overnight cultures were grown in borate-depleted LB medium at 37° C. with aeration and were diluted 1:100 into fresh borate-depleted LB medium in the presence or absence of 5 mM boric acid. To the diluted cells (900 μl), 10% (v/v) autoinducer samples were added (100 μl), and cells were grown for 4 hr. Cell lysates were prepared and β-galactosidase activity was measured as described previously (Taga et al., 2003). β-galactosidase units are defined as [(OD420 min^−1×dilution factor)/OD600].
# (§2) Ligands were released from LsrB and LuxP as described above. All ligand concentrations were estimated by ^11B-NMR in NMR buffer supplemented with 5 mM boric acid; the area of the boric acid peak served as an internal concentration standard.
# [2] = system: V. harveyi strain MM32 (LuxN−, LuxS−); type: cell-based; settings: for light production: ligand approximately 0.2 nM, 8 hr of growth
# Description: as §1
# V. harveyi MM32 was grown 14 hr in borate-depleted AB at 30° C. with aeration and subsequently diluted 1:5,000 into fresh borate-depleted AB medium in the presence or absence of 5 mM boric acid. 10% autoinducer samples (v/v) were added to the diluted cells and light production was measured hourly in a Wallac Model 1450 Microbeta Plus liquid scintillation counter. […] Bioluminescence is reported as the light produced by the cells divided by the background obtained in medium alone.
# as §2
# To directly examine the influence of borate on AI-2-dependent signaling in V. harveyi and S. typhimurium, borate-depleted medium was prepared. AI-2 responses (bioluminescence in V. harveyi, lsr operon induction in S. typhimurium) were measured both with and without added boric acid. In this experiment, V. harveyi strain, MM32 was used because this strain lacks the LuxS enzyme needed to biosynthesize DPD and thus produces no endogenous AI-2 signal. This strain also has the AI-1 pathway inactivated. Bioluminescence was measured following addition of enzymatically synthesized DPD or, alternatively, ligand released from either LsrB or LuxP.
# [3] = target: T1, S. typhimurium receptor LsrB (Salmonella typhimurium, UniProt Q8ZKQ1); test: X-ray crystal structure of the LsrB:ligand complex; type: binding; settings: holo-LsrB crystal, 1.3 Å resolution
# T1 construct: The final model contains all LsrB residues present in the protein (27-340); GST (N, cleaved yes); made in house; host or cells: E. coli BL21
# Source text: Both apo-LsrB and holo-LsrB crystallized by the hanging drop method in 0.1 M Tris-HCl (pH 8.5), 22%-25% PEG 4000 (w/v) in space group P212121. The apo-LsrB crystals initially obtained (a=38.0, b=74.0, c=116.2) were used to seed crystallization in 0.1 M Tris-HCl, pH 8.5, 18%-24% PEG 4000. Crystals were cryoprotected by brief soaks in 0.1 M Tris-HCl, pH 8.5, 20% PEG 4000, 16% (v/v) glycerol and flash frozen in liquid nitrogen. Native crystals diffracted to 1.9 Å and data were collected at 100 K using an R-AXIS-IV image plate detector mounted on a Rigaku 200HB generator. Selenomethionine LsrB crystals were grown and frozen in the same conditions as native crystals. Selenomethionine crystals diffracted to 2.1 Å resolution at NSLS beam line X25, where MAD data were collected using an ADSC Q315 CCD detector. Holo-LsrB crystals (a=37.8, b=76.6, c=109.7) were prepared by addition of approximately 0.25 mM in vitro LuxS reaction product (Schauder et aL, 2001) to the native LsrB crystallization conditions, giving a DPD:LsrB molar ratio of slightly over 1:1. […]
# To identify the LsrB ligand, LsrB was crystallized in the presence of DPD and the other products generated by incubating SAH with recombinant Pfs and LuxS enzymes as previously described (Schauder et al., 2001) (FIG. 1A). The structure was determined by molecular replacement and refined to 1.3 Å resolution (Table 1). […]
# V. harveyi [4] = settings: presence or absence of 5 mM boric acid; AB medium
# Description: as §1
# S. typhimurium = system: S. typhimurium
# Description: as §1
# V. harveyi [5] = settings: cited from earlier work
# V. harveyi receptor LuxP = V. harveyi receptor LuxP (Vibrio harveyi, UniProt P54300); settings: Chen et al., 2002; cited from earlier work
# [6] = borate-depleted AB medium plus 5 mM boric acid
# [7] = 5 mM boric acid added to borate-depleted medium
# Sequence of V. harveyi receptor LuxP (P54300 24-365): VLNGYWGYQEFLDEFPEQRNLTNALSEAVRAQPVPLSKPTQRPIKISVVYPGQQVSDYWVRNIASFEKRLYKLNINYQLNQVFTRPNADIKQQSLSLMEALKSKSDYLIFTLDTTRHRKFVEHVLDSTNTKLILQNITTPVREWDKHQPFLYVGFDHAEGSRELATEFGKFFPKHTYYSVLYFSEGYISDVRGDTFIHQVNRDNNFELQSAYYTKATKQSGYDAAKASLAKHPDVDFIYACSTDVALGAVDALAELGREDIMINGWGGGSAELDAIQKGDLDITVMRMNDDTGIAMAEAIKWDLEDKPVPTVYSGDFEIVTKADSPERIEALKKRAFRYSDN
smiles,measurement,setting,value
C[C@]12OC[C@H](O)[C@@]1(O)O[B-](O)(O)O2 [LuxP ligand],lsr expression (β-galactosidase activity),[1],induces lsr expression
same,light production,[2]; borate-depleted AB medium,failed to stimulate light production
"C[C@@]1(O)OC[C@H](O)C1(O)O [R-THMF, (2R,4S)-2-methyl-2,3,3,4-tetrahydroxytetrahydrofuran]",binding to LsrB,[3],binds
C[C@@]1(O)OC[C@H](O)C1(O)O [LsrB ligand],lsr expression (β-galactosidase activity),[1],induces lsr expression
same,light production,[2]; [6],stimulate light production
same,light production,[2]; borate-depleted AB medium,No light was produced
OB(O)O [boric acid],effect of boric acid on the ability of DPD or either receptor's ligand to activate the S. typhimurium assay,[1]; [7],inhibits
same,effect on growth,V. harveyi [4],no effect
same,effect on growth,S. typhimurium,no effect
same,effect of boric acid on the ability of DPD or either receptor's ligand to activate the V. harveyi assay,[2]; [7],strongly enhances
N[C@@H](CCS)C(=O)O [homocysteine],autoinducer activity,V. harveyi [5]; product of the LuxS reaction,no autoinducer activity
"CC(=O)C(=O)C(O)CO (centres unmarked) [DPD, 4,5-dihydroxy-2,3-pentanedione]",lsr expression (β-galactosidase activity),[1],induces lsr expression
same,bioluminescence in V. harveyi,"V. harveyi [5]; chemically synthesized DPD, only in the presence of boric acid (Meijler et al., 2004)",induces bioluminescence
same,light production,[2]; [6],stimulate light production
same,light production,[2]; borate-depleted AB medium,No light was produced
same,DPD final concentration inducing a linear response in light production,"[2]; in the presence of 5 mM borate, 6-8 hr incubation",0.1 to 1 nM
"CC12OCC(O)C1(O)O[B-](O)(O)O2 [S-THMF-borate, α-L-glycero-1-dehydro-3-hydro-penta-2,3-diulo-2,5-furanosyl-2,3-cyclic borate]",binding to LuxP,V. harveyi receptor LuxP,binds
